According to patent US8697727B2, “N-substituted-heterocycloalkyloxybenzamide compounds and methods of use” (Rigel Pharmaceuticals, Inc., priority 2006, dated 2014):

System: AMPK
Assay: AMPK activation, enzyme-linked immunosorbent assay
Type: cell-based
Procedure, shortened: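 Cell-based assay in which AMPK activity was measured as the relative concentration of phosphorylated acetyl-CoA carboxylase, a product of AMPK, by enzyme-linked immunosorbent assay. The endpoint is the EC50 for AMPK activation of each compound. EC50 values were reported in ranges: less than 1 μM, 1-10 μM, 10-20 μM, 20-50 μM, 50-100 μM, and >100 μM.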

Compared with `O=C(NC1CCN(Cc2ccccc2)CC1)c1ccc(OC2CCN(C(=O)c3ccc(C(F)(F)F)cc3)CC2)c(Cl)c1` [Compound 18, N-(1-benzylpiperidin-4-yl)-3-chloro-4-(1-(4-(trifluoromethyl)benzoyl)piperidin-4-yloxy)benzamide], `O=C(NC1CCN(Cc2ccccc2)CC1)c1ccc(OC2CCN(C(=O)c3ccc(F)cc3)CC2)c(Cl)c1` [Compound 22, N-(1-benzylpiperidin-4-yl)-3-chloro-4-(1-(4-fluorobenzoyl)piperidin-4-yloxy)benzamide] is higher in EC50: < 1 µM for the first, 1 to 10 µM for the second.

`O=C(NC1CCN(Cc2ccccc2)CC1)c1ccc(OC2CCN(Cc3ccc(F)cc3)CC2)c(Cl)c1` [Compound 19, N-(1-benzylpiperidin-4-yl)-3-chloro-4-(1-(4-fluorobenzyl)piperidin-4-yloxy)benzamide] and `CC(C)(C)c1ccc(CN2CCC(Oc3ccc(C(=O)NC4CCN(Cc5ccccc5)CC4)cc3F)CC2)cc1` [Compound 20, N-(1-benzylpiperidin-4-yl)-3-fluoro-4-(1-(4-tert-butylbenzyl)piperidin-4-yloxy)benzamide] cannot be ordered by EC50: < 1 µM for the first, < 1 µM for the second.

First: CC(c1ccccc1)N1CCC(Oc2ccc(C(=O)NC3CCN(Cc4ccccc4)CC3)cc2F)CC1 (stereo not shown) [Compound 21, N-(1-benzylpiperidin-4-yl)-3-fluoro-4-(1-(1-phenylethyl)piperidin-4-yloxy)benzamide]
Second: O=C(NC1CCN(Cc2ccccc2)CC1)c1ccc(OC2CCN(c3ccc(C(F)(F)F)cc3)CC2)c(F)c1 [Compound 23, N-(1-benzylpiperidin-4-yl)-3-fluoro-4-(1-(4-(trifluoromethyl)phenyl)piperidin-4-yloxy)benzamide]
The EC50 of the first is higher: 1 to 10 µM for the first, < 1 µM for the second.

First: O=C(NC1CCN(Cc2ccccc2)CC1)c1ccc(OC2CCN(Cc3ccccc3C(F)(F)F)CC2)c(Cl)c1 [Compound 24, N-(1-benzylpiperidin-4-yl)-3-chloro-4-(1-(2-(trifluoromethyl)benzyl)piperidin-4-yloxy)benzamide]
Second: O=C(NC1CCN(Cc2cccnc2)CC1)c1ccc(OC2CCN(c3ccc(C(F)(F)F)cc3)CC2)c(F)c1 [Compound 29, 3-fluoro-N-(1-(pyridin-3-ylmethyl)piperidin-4-yl)-4-(1-(4-(trifluoromethyl)phenyl)piperidin-4-yloxy)benzamide]
The EC50 of the first is higher: 10 to 20 µM for the first, < 1 µM for the second.

First: O=C(NC1CCN(c2ccccc2)CC1)c1ccc(OC2CCN(c3ccc(C(F)(F)F)cc3)CC2)c(F)c1 [Compound 25, 3-fluoro-N-(1-phenylpiperidin-4-yl)-4-(1-(4-(trifluoromethyl)phenyl)piperidin-4-yloxy)benzamide]
Second: O=C(NC1CCN(Cc2ccncc2)CC1)c1ccc(OC2CCN(c3ccc(C(F)(F)F)cc3)CC2)c(F)c1 [Compound 28, 3-fluoro-N-(1-(pyridin-4-ylmethyl)piperidin-4-yl)-4-(1-(4-(trifluoromethyl)phenyl)piperidin-4-yloxy)benzamide]
The EC50 of the first is higher: > 100 µM for the first, < 1 µM for the second. The second is the more potent here.

`CC(C)(C)OC(=O)N1CCC(NC(=O)c2ccc(OC3CCN(c4ccc(C(F)(F)F)cc4)CC3)c(F)c2)CC1` [Compound 26, tert-butyl 4-(3-fluoro-4-(1-(4-(trifluoromethyl)phenyl)piperidin-4-yloxy)benzamido)piperidine-1-carboxylate] and `CC(C)(C)C(=O)N1CCC(NC(=O)c2ccc(OC3CCN(c4ccc(C(F)(F)F)cc4)CC3)c(F)c2)CC1` [Compound 30, 3-fluoro-N-(1-pivaloylpiperidin-4-yl)-4-(1-(4-(trifluoromethyl)phenyl)piperidin-4-yloxy)benzamide] cannot be ordered by EC50: < 1 µM for the first, < 1 µM for the second.

With `O=C(NC1CCN(Cc2ccc(F)cc2)CC1)c1ccc(OC2CCN(c3ccc(C(F)(F)F)cc3)CC2)c(F)c1` [Compound 27, 3-fluoro-N-(1-(4-fluorobenzyl)piperidin-4-yl)-4-(1-(4-(trifluoromethyl)phenyl)piperidin-4-yloxy)benzamide] the EC50 was < 1 µM.
